Series [1] in a line: in vivo pharmacokinetics experiment in rats (Test Example 2). The settings on record: male, SD, rat, plasma. As to the method: Test animals: male SD rats, weighing 230-250 g, purchased from Shanghai SLAC Laboratory Animals Co., Ltd., Certificate of Conformity: SCXK (SH) 2007-0005 22045; Six rats were tested for each compound.
Test substances: Compound 2 of the present invention, prepared in accordance with the method of Example 3; dissolved in physiological saline.
Internal standard substance: The acetonitrile solution of 50 ng/ml KBP-5747 was used as an internal standard solution in the measurement of Compound 2.
Administration of Compound 2 of the present invention: intravenous bolus injection (iv), dose: 5 mg/kg, administrating volume: 5 mL/kg; gavage (po), dose: 5 mg/kg, administrating volume: 5 mL/kg. Prior to administration help but water fasting for 12 hours, 4 hours after administration to food.
iv blood sampling time point: denoted by 0 min before administration, 5 min, 15 min, 30 min, 1 h, 2 h, 4 h, 8 h, 24 h, 30 h, 48 h after administration
po blood sampling time point: denoted by 0 min before administration, 5 min, 15 min, 30 min, 1 h, 2 h, 4 h, 8 h, 24 h, 30 h, 48 h after administration
Each time point to take around 150 μl whole blood, centrifugated at 2000×g at 4° C. for 5 minutes in a low-temperature high-speed centrifuge to separate plasma, the resulting plasma frozen was at −70° C. in a refrigerator.
Plasma samples analysis: 30 μl of plasma was taken and added 100 μl of internal standard solution, subjected to vortex at 14,000 rev/min for 5 minutes, then to centrifugation at 12,000 rpm/min for 5 minutes. The supernatant was taken and analyzed using LC-MS/MS.
Formula Absolute Bioavailability F%=[AUC]INF (po)×Dose(iv)/[AUC]INF (iv)×Dose(po)

Another series has as its system Klebsiella pneumoniae. In words: antibacterial activity in vitro, agar dilution method. It counts as cell-based. The source says: (§1) The antibacterial spectrum and in vitro antibacterial activity of the compound of the present invention
(§2) Experimental method: the agar dilution method, with reference to Clinical And Laboratory Standards Institute. Methods for Dilution Antimicrobial Susceptibility Tests for Bacteria That Grow Aerobically; Approved Standard-Seventh Edition. CLSI Document M7-A7. Vol 26, no. 2, Wayne, Pa.: Clinical and Laboratory Standards Institute, 2006.
(§3) Wherein MIC represents the minimum inhibitory concentration, MIC90 represents the 90% inhibitory concentration.
On the technique in general: In agar dilution the substance is mixed into plates at graded concentrations.

The test system of series [2] is Methicillin-resistant Staphylococcus aureus (MRSA). The description is as above. It counts as cell-based.
Source text: as §1, §2, §3

The subject of a further series is Escherichia coli. The description is as above. It counts as cell-based.
Source text: as §1, §2, §3

For another series, the system named is Streptococcus pyogenes. The description is as above. The settings on record: Table 2. It counts as cell-based.
Source text: as §1, §2, §3

Series [3] deals with Methicillin-resistant Staphycoccus epidermidis (MRSE). The description is as above. The note with it: Staphylococcus epidermidis. It counts as cell-based.
Source text: as §1, §2, §3

The next series has as its system Acinetobacter baumannii. Described as above. The series is classed as cell-based.
Source text: as §1, §2, §3

Another series can be described thus: in vivo. Also on record: species or system male SD rats. The note with it: male, SD, rat, 5 mg/kg. As to the method:
Test animals: male SD rats, weighing 180-280 g, purchased from Beijing Vital River Laboratory Animal Technology Co., Ltd.; animal Certificate of Conformity: SCXK (Beijing) 2006-0009. Six rats were tested for each compound. the compounds of the present invention, prepared in accordance with the methods of above Examples, dissolved in physiological saline. tigecycline, dissolved in physiological saline. Administration of the compounds of the present invention: intravenous bolus injection (iv), dose: 5 mg/kg, administrating volume: 5 mL/kg; gavage (po), dose: 5 mg/kg, administrating volume: 5 mL/kg. Administration of tigecycline: gavage (po), dose: 10 mg/kg, administrating volume: 5 mL/kg. Prior to administration help but water fasting for 16 hours, 4 hours after administration to food. Compound 9: iv blood sampling time point: denoted by 0 min before administration, 5 min, 15 min, 30 min, 1 […] after administration; po blood sampling time point: denoted by 0 min before administration, 5 min, 15 min, 30 min, 1 […] after administration; Compound 20: iv blood sampling time point: 5 min, 15 min, 30 min, 1 […] after administration; po blood sampling time point: 10 min, 30 min, 1 […] after administration; Compound 23: iv blood sampling time point: denoted by 0 min before administration, 5 min, 15 min, 30 min, 1 […] after administration; po blood sampling time point: denoted by 0 min before administration, 5 min, 15 min, 30 min, 1 […] after administration; Tigecycline: iv blood sampling time point: 5 min, 15 min, 30 min, 1 h, 2 h, 4 h, 6 h, 8 h after administration; po blood sampling time point: 10 min, 30 min, 1 […] after administration. Each time point is taken around 100 μl whole blood and placed in a heparinized tube, centrifugated at 8000 rpm/min at 4° C. for 6 minutes in a low-temperature high-speed centrifuge to separate plasma, the resulting plasma was frozen at -80° C. refrigerator. Plasma samples analysis: 20 μl of plasma was taken and added 200 μl of internal standard solution, subjected to vortex for 3 minutes, then to centrifugation at 12,000 rpm/min for 5 minutes. 100 μl of supernatant was taken and analyzed using LC-MS/MS. Formula Absolute Bioavailability F%=[AUC](po)×Dose(iv)/[AUC](iv)×Dose(po)

The subject of a further series is Klebsiella oxytoca. In words: antibacterial activity in vitro, agar dilution method. The series is classed as cell-based. The note with it: Table 3.
Source text: as §1, §2, §3

[4] abbreviates: Table 2, agar dilution, read-out: antibacterial activity MIC, Acinetbacter baumannii.

Values after ≈ are worked out from the molar mass of the structure shown. Where two headings read alike, the source gives them in different places.

As for `CN(C)c1cc(CNC2CC(F)(F)C2)c(O)c2c1C[C@H]1C[C@H]3[C@H](N(C)C)C(O)=C(C(N)=O)C(=O)[C@@]3(O)C(O)=C1C2=O` [Compound 2, (4S,4aS,5aR,12aS)-9-((3,3-difluorocyclobutylamino)methyl)-4,7-bis(dimethylamino)-3,10,12,12a-tetrahydroxy-1,1′-dioxo-1,4,4a,5,5a,6,11,12a-octahydrotetracene-2-carboxamide], the AUC(0-inf) is 2290 ng·h/mL in series [1] (iv, 5 mg/kg) and 777 ng·h/mL in series [1] (po (gavage), 5 mg/kg). Further, in series [1] (iv, 5 mg/kg), the clearance is 37.2 mL/min/kg. In addition, the half-life in series [1] (iv, 5 mg/kg) was 4.07 h; in series [1] (po (gavage), 5 mg/kg), 2.32 h. In addition, the Vd in series [1] (iv, 5 mg/kg, read-out: Vss) was 5.12 L/kg. Besides, the bioavailability in series [1] (po 5 mg/kg vs iv 5 mg/kg, read-out: F % (absolute bioavailability)) stood at 33.9%. In series [1] (po (gavage), 5 mg/kg), the peak level (Cmax) was 251 ng/mL. Besides, in series [1] (po (gavage), 5 mg/kg), the Tmax is 1 h. Besides, the MIC against Klebsiella pneumoniae (Table 2) was found to be 4 µg/mL (≈ 6.94 µM); in series [2] (Table 2, agar dilution), 0.5 µg/mL (≈ 0.867 µM); against Escherichia coli (Table 2), 1 µg/mL (≈ 1.73 µM); against Streptococcus pyogenes it was 0.125 µg/mL (≈ 0.217 µM); in [3] (Table 2), 0.25 µg/mL (≈ 0.434 µM); with Acinetobacter baumannii (setting [4]), 0.5 µg/mL (≈ 0.867 µM).

Consider `CN(C)c1cc(CNC2CC3(CC3)C2)c(O)c2c1C[C@H]1C[C@H]3[C@H](N(C)C)C(O)=C(C(N)=O)C(=O)[C@@]3(O)C(O)=C1C2=O` [Compound 3, (4S,4aS,5aR,12aS)-9-((spiro[2.3]hexan-5-ylamino)methyl)-4,7-bis(dimethylamino)-3,10,12,12a-tetrahydroxy-1,1′-dioxo-1,4,4a,5,5a,6,11,12a-octahydrotetracene-2-carboxamide], for which the MIC against Klebsiella pneumoniae (Table 2) amounted to 2 µg/mL (≈ 3.53 µM); in series [2] (Table 2, agar dilution), 0.5 µg/mL (≈ 0.882 µM); in the series on Escherichia coli (Table 2), 1 µg/mL (≈ 1.76 µM); in the series on Streptococcus pyogenes it was 0.06 µg/mL (≈ 0.106 µM); in series [3] (Table 2), 0.5 µg/mL (≈ 0.882 µM); with Acinetobacter baumannii (setting [4]) it was 4 µg/mL (≈ 7.06 µM).

Regarding `CN(C)c1cc(CNCC2CC(F)(F)C2)c(O)c2c1C[C@H]1C[C@H]3[C@H](N(C)C)C(O)=C(C(N)=O)C(=O)[C@@]3(O)C(O)=C1C2=O` [Compound 10, (4S,4aS,5aR,12aS)-9-(((3,3-difluorocyclobutyl)methylamino)methyl)-4,7-bis(dimethylamino)-3,10,12,12a-tetrahydroxy-1,11-dioxo-1,4,4a,5,5a,6,11,12a-octahydrotetracene-2-carboxamide], the MIC with Klebsiella pneumoniae (Table 2) was determined as 2 µg/mL (≈ 3.39 µM); in series [2] (Table 2, agar dilution), 1 µg/mL (≈ 1.69 µM); against Escherichia coli (Table 2) it was 1 µg/mL (≈ 1.69 µM); with Streptococcus pyogenes it was 0.125 µg/mL (≈ 0.212 µM); in [3] (Table 2), 0.5 µg/mL (≈ 0.847 µM); in the series with Acinetobacter baumannii (setting [4]), 4 µg/mL (≈ 6.77 µM).

On to `CN(C)c1cc(CN2CCC3(CC2)CC3)c(O)c2c1C[C@H]1C[C@H]3[C@H](N(C)C)C(O)=C(C(N)=O)C(=O)[C@@]3(O)C(O)=C1C2=O` [Compound 20, (4S,4aS,5aR,12aS)-9-(6-azaspiro[2.5]octan-6-ylmethyl)-4,7-bis(dimethylamino)-3,10,12,12a-tetrahydroxy-1,1′-dioxo-1,4,4a,5,5a,6,11,12a-octahydrotetracene-2-carboxamide], for which the results for the AUC(0-t) in the series “in vivo” (iv) and in the series “in vivo” (po) were 11600 ng·h/mL and 605 ng·h/mL, respectively. In addition, the Vd in “in vivo” (iv) worked out at 2.22 L/kg. Also, the clearance in the series “in vivo” (iv) is 7.33 mL/min/kg. This compound also showed a half-life in the series “in vivo” (iv) of 4.98 h. The compound further came in with a Cmax in the series “in vivo” (po) of 116 ng/mL. Moreover, in “in vivo” (po), the Tmax was 2 h. Also, the bioavailability in “in vivo” (po) was 5.22%. In addition, the MIC is 2 µg/mL (≈ 3.44 µM) in the series on Klebsiella pneumoniae (Table 3); 0.5 µg/mL (≈ 0.861 µM) in series [2] (Table 3, agar dilution); 0.5 µg/mL (≈ 0.861 µM) against Escherichia coli (Table 3); 1 µg/mL (≈ 1.72 µM) in series [3] (Table 3); 1 µg/mL (≈ 1.72 µM) in the series with Acinetobacter baumannii (Table 3, agar dilution, read-out: antibacterial activity MIC, Acinetobacter baumannii); 1 µg/mL (≈ 1.72 µM) in the series with Klebsiella oxytoca.

A word on the AUC(0-inf): it is the area under the concentration-time curve extrapolated to infinity. Read a high AUC(0-inf) as high exposure. As a reminder, the clearance is the volume of plasma or blood freed of the substance per unit of time. A lower clearance goes with inefficient removal. Usually half-life stands for how long it takes for the measured level to halve. High values mean slow loss, low ones fast loss. The term bioavailability denotes the share of a dose that reaches the circulation, judged against a reference dose that is usually intravenous. In general, Cmax refers to the highest concentration seen after dosing. What is called Tmax is the time at which the peak concentration occurs. In general, MIC refers to the lowest concentration found to suppress growth. Broadly, the AUC(0-t) is exposure summed from dosing to a finite time, without extrapolation to infinity.

Values taken from patent US9365499B2, “9-aminomethyl substituted tetracycline compounds” (KBP Biosciences Co., Ltd., priority 2011, dated 2016).
